# Test results published in the Kinase Knowledgebase extract (Sharma et al. 2016).
# Tests used:
# PIK3CA (human) = PIK3CA (human) (UniProt P42336); assay: Inhibition of PIK3CA Kinase Activity
# PIK3CG (human) = PIK3CG (human) (UniProt P48736); assay: Inhibition of PIK3CG Kinase Activity
# PIK3CB (Human) = PIK3CB (Human) (UniProt P42338); assay: Inhibition of PIK3CB Kinase Activity
# PIK3CD (Human) [1] = target: PIK3CD (Human) (UniProt O00329); assay: Assessment of Elastase Exocytosis From Neutrophils
# PIK3CD (Human) [2] = target: PIK3CD (Human) (UniProt O00329); assay: Assessment of Human B Lymphocyte Function; conditions: b cells
# Sequence of PIK3CD (Human) (O00329 whole entry, looked up): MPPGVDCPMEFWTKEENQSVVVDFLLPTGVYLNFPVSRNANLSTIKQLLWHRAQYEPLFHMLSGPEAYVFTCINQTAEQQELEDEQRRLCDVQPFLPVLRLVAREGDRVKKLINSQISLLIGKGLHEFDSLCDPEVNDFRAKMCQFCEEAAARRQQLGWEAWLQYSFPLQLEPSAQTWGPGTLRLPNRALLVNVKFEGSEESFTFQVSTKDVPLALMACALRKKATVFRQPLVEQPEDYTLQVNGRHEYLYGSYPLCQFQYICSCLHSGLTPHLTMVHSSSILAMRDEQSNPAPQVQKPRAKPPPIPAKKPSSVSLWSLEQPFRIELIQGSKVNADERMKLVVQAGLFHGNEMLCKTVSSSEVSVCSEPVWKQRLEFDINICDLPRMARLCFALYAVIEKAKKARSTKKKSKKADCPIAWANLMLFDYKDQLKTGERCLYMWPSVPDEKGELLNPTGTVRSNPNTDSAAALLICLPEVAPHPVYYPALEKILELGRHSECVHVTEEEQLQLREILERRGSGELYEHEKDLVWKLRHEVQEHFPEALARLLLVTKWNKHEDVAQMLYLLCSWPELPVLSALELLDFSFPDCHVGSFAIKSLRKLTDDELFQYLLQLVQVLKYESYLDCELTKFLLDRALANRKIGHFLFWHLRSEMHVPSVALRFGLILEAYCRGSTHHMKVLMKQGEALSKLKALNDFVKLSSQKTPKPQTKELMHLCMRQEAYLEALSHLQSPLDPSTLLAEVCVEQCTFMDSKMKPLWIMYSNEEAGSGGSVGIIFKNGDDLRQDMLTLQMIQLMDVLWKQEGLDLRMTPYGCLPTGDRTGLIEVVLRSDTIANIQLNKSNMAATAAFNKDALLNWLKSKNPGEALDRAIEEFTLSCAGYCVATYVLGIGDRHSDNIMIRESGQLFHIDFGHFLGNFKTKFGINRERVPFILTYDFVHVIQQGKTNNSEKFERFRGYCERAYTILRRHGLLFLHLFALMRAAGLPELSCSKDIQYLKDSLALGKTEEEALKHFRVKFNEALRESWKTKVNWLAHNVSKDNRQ
# Sequence of PIK3CB (Human) (P42338 whole entry, looked up): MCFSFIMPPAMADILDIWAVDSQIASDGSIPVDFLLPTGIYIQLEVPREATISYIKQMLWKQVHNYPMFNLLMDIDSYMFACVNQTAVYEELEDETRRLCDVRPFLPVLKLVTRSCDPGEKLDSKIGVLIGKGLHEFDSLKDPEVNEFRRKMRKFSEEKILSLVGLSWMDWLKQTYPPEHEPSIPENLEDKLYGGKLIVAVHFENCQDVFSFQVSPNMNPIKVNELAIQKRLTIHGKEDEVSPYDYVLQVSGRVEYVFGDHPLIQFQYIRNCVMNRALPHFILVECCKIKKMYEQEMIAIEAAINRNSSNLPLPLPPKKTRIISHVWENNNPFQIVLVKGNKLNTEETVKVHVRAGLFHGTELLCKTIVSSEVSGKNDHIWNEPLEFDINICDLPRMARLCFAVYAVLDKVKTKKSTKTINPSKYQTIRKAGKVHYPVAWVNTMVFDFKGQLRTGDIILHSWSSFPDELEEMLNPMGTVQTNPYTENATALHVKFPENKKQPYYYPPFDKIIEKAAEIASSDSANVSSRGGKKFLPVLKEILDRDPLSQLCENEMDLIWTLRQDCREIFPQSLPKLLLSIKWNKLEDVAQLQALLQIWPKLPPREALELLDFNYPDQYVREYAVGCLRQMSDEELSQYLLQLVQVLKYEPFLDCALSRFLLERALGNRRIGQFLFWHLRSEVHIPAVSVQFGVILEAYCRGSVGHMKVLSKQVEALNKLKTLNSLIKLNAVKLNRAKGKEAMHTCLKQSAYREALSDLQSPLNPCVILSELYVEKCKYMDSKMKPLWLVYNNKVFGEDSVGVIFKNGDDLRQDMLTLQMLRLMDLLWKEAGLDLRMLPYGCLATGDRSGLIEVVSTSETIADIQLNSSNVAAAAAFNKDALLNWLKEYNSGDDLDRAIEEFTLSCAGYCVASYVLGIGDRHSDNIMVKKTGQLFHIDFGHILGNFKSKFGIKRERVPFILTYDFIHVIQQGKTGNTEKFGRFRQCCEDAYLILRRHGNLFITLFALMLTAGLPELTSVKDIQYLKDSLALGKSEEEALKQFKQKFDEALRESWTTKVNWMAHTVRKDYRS
# Sequence of PIK3CG (human) (P48736 whole entry, looked up): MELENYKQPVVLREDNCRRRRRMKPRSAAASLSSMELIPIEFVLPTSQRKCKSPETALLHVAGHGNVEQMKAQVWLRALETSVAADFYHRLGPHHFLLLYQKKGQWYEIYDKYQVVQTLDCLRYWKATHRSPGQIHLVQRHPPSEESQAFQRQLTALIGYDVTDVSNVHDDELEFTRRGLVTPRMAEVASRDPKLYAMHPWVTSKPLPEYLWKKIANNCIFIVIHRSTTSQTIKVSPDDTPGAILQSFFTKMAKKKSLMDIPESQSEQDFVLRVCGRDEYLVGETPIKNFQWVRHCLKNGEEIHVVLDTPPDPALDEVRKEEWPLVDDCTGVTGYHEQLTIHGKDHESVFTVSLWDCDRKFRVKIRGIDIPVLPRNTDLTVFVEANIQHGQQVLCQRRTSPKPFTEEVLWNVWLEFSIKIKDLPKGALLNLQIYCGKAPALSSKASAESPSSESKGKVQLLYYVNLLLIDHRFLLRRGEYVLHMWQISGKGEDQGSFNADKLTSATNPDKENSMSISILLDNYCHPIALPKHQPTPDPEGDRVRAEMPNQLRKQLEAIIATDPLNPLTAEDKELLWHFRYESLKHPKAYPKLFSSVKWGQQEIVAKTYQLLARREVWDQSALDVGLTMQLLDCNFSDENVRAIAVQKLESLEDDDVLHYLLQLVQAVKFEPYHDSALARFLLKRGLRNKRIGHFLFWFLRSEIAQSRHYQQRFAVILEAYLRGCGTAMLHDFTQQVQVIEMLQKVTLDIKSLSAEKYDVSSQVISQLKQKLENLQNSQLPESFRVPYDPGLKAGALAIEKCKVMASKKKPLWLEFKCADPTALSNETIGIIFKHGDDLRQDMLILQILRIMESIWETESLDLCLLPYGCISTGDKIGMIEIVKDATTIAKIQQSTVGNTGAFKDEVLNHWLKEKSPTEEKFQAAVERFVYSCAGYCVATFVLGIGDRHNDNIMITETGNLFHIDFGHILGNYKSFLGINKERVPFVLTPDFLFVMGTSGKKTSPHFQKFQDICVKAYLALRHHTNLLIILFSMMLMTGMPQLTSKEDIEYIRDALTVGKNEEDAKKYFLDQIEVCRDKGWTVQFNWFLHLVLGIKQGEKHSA
# Sequence of PIK3CA (human) (P42336 whole entry, looked up): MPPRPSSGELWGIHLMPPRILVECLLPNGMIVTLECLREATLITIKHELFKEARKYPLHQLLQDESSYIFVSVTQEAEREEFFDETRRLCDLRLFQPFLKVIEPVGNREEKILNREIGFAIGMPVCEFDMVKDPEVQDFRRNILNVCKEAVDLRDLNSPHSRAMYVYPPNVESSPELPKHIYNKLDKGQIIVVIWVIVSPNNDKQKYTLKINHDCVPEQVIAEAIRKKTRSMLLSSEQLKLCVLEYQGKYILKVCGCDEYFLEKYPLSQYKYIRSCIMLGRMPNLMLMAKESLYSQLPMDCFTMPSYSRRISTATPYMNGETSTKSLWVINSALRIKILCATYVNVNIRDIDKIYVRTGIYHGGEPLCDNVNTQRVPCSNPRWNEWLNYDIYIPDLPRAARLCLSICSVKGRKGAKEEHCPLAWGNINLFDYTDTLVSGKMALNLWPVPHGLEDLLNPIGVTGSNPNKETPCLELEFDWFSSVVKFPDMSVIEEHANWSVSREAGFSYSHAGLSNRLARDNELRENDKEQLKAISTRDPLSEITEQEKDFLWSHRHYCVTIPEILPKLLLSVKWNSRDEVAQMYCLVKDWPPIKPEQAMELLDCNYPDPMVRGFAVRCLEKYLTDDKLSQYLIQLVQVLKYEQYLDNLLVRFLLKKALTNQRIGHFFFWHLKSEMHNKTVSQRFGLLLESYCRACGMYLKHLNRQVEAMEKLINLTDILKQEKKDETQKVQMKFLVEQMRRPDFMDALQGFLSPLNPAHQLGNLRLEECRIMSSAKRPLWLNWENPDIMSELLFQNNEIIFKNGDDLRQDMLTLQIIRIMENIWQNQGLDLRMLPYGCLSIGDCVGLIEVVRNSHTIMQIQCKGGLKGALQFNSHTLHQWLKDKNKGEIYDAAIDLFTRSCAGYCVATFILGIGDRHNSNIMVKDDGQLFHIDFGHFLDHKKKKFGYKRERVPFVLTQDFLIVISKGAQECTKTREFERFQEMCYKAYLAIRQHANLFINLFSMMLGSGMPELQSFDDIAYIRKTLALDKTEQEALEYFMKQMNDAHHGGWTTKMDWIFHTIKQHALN
Compound,IC50 (PIK3CA (human)),IC50 (PIK3CG (human)),IC50 (PIK3CB (Human)),EC50 (PIK3CD (Human) [1]),EC50 (PIK3CD (Human) [2])
CCC(Nc1ncnc2[nH]cnc12)c1nc2cccc(C)c2c(=O)n1-c1cc(F)cc(F)c1 (centres undefined),18.7 µM,1.61 µM,2.44 µM,0.584 µM,
CC[C@H](Nc1ncnc2[nH]cnc12)c1nc2cccc(Cl)c2c(=O)n1-c1cc(F)cc(F)c1,7.94 µM,0.804 µM,0.936 µM,0.382 µM,0.0016 µM
CCC(Nc1ncnc2[nH]cnc12)c1nc2ccccc2c(=O)n1-c1ccccc1 (centres undefined),9.73 µM,1.06 µM,1.18 µM,0.084 µM,0.0046 µM
CCC(Nc1ncnc2[nH]cnc12)c1nc2cccc(Cl)c2c(=O)n1-c1c(F)cccc1F (centres undefined),11.2 µM,1.71 µM,3.24 µM,0.298 µM,0.0307 µM
